Here are results for 5 sequences from PMC11999303 (iScience, 2025).

Entries after “also recorded” stand apart in the source; their conditions may differ.

The target in this assay is I-A^b (Mus musculus, UniProt P14434+P14483). The experiment in a line: MHC2-SCALE peptide exchange with 2D-LCMS detection on I-A^b. Format: binding. The conditions noted are these: single peptide, lowmCLIP-I-A^b, standard exchange pH 5, 2D-LCMS.
I-A^b, sequence (P14434 whole entry, looked up): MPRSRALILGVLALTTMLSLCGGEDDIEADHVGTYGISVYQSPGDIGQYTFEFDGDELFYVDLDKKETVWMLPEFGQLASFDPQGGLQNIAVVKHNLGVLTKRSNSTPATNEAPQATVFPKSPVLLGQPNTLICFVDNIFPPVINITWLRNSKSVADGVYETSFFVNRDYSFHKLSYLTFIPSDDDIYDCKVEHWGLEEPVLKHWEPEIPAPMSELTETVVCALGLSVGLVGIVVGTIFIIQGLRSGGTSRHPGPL
I-A^b, sequence (P14483 whole entry, looked up): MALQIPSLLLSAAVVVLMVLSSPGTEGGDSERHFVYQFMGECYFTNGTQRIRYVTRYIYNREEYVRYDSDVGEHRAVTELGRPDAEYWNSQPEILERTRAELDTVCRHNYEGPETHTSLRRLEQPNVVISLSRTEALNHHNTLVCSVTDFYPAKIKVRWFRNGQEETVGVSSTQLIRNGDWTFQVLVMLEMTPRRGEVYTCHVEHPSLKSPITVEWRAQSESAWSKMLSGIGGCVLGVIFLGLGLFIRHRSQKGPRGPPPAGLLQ
With DRGVIMSAHSLTNSS [M57-A], the “peptide exchange / binding to I-A^b by MHC2-SCALE, in words” value is given as “binders”.
With HYKYMCNSSCMGVMN [M112-A] the entry was “bound; also recorded: strong binder”; with LPLQPFQLAFGHLVN [M46-A], “complete peptide exchange”; with VIMSAHSLTNSSSDF [M57-B], “binders”.
Then LQPFQLAFGHLVNRQV [M46-B], with “complete peptide exchange”.
